Results taken from ChEMBL document CHEMBL1201862, “PubChem BioAssay data set” (2004).
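Test compounds were applied to cells in 96-well plates for 48 hours at 5 doses. At the GI50, growth is halved.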 Active and inactive are the calls of the source. Rule as the data show it: active = GI50 up to about 1.1 µM and inactive = higher.

Columns and labels:
Assay in all cases: inhibition of tumour cell growth, NCI panel, 48 h
[1] = tested on: COLO 205
[2] = tested on: HOP-92
[3] = tested on: SK-MEL-2
[4] = tested on: HT-29
[5] = tested on: CCRF-CEM
[6] = tested on: NCI-H226
[7] = tested on: SF-295
[8] = tested on: MOLT-4
[9] = tested on: SK-OV-3
[10] = tested on: HCT-15
[11] = tested on: HOP-62
[12] = tested on: SN12C
[13] = tested on: RPMI-8226
[14] = tested on: A498
[15] = tested on: 786-0

Compound	GI50 [1]	GI50 [2]	GI50 [3]	GI50 [4]	GI50 [5]	GI50 [6]	GI50 [7]	GI50 [8]	GI50 [9]	GI50 [10] [µM]	GI50 [11]	GI50 [12]	GI50 [13]	GI50 [14]	GI50 [15]
NNC(=O)C(=O)NN=C(C(Cl)(Cl)CO)C(Cl)(Cl)CO	> 100 µM (inactive)	33.4 µM (inactive)	22.1 µM (inactive)	37.3 µM (inactive)	19.1 µM (inactive)	> 100 µM (inactive)	66.1 µM (inactive)	21.2 µM (inactive)	> 100 µM (inactive)	25.7	70.8 µM (inactive)	> 100 µM (inactive)	27.4 µM (inactive)	> 100 µM (inactive)	36.4 µM (inactive)
C=C[C@H]1C=Cc2c(OC)cccc2[C@@H]1COP1(=S)NC(C)C(c2ccccc2)O1 (stereo partly specified)	97.3 µM (inactive)	–	–	79.6 µM (inactive)	42 µM (inactive)	67.5 µM (inactive)	> 100 µM (inactive)	33.9 µM (inactive)	> 100 µM (inactive)	–	> 100 µM (inactive)	> 100 µM (inactive)	27 µM (inactive)	–	> 100 µM (inactive)
COC(=O)[C@]1(C)CCC[C@@]2(C)C1CCC1=C[C@@]3(C(C)C)CC[C@]12OO3 (stereo partly specified)	22.5 µM (inactive)	–	36.5 µM (inactive)	15.2 µM (inactive)	17.9 µM (inactive)	26.3 µM (inactive)	25.8 µM (inactive)	25.8 µM (inactive)	60 µM (inactive)	31.9	36.9 µM (inactive)	31.3 µM (inactive)	18.2 µM (inactive)	20.4 µM (inactive)	20.4 µM (inactive)
N#Cc1ccccc1Nc1ccccc1S	> 100 µM (inactive)	35.1 µM (inactive)	56.4 µM (inactive)	57.8 µM (inactive)	6.68 µM (inactive)	22.4 µM (inactive)	23.9 µM (inactive)	5.4 µM (inactive)	57.1 µM (inactive)	–	46.7 µM (inactive)	31 µM (inactive)	–	53.7 µM (inactive)	20.9 µM (inactive)
COc1c(C)c(O)c2c(c1C)OC(c1ccccc1)CC2=O (stereo unspecified)	–	29.6 µM (inactive)	22.4 µM (inactive)	43.2 µM (inactive)	31.4 µM (inactive)	38.9 µM (inactive)	50.6 µM (inactive)	31.8 µM (inactive)	> 100 µM (inactive)	30.5	> 100 µM (inactive)	52.5 µM (inactive)	36.1 µM (inactive)	19.9 µM (inactive)	89.3 µM (inactive)
CCOc1ccc(NC(=O)CC2C(=O)Nc3ccccc3S2(=O)=O)cc1 (stereo unspecified)	> 100 µM (inactive)	13.3 µM (inactive)	75.2 µM (inactive)	> 100 µM (inactive)	–	34.3 µM (inactive)	49.4 µM (inactive)	> 100 µM (inactive)	–	> 100	41.1 µM (inactive)	53.1 µM (inactive)	> 100 µM (inactive)	> 100 µM (inactive)	33.7 µM (inactive)
C/C(=N/NC(=O)C[n+]1ccccc1)C(CN(CC(C)C)CC(C)C)C(=O)Nc1ccc(C)cc1C (stereo unspecified)	> 100 µM (inactive)	43.3 µM (inactive)	> 100 µM (inactive)	> 100 µM (inactive)	> 100 µM (inactive)	–	–	> 100 µM (inactive)	> 100 µM (inactive)	–	90.8 µM (inactive)	51.4 µM (inactive)	68.1 µM (inactive)	25.4 µM (inactive)	> 100 µM (inactive)
Cc1nsc2cc(Cl)n(C)c(=O)c12	> 100 µM (inactive)	59.7 µM (inactive)	> 100 µM (inactive)	> 100 µM (inactive)	> 100 µM (inactive)	> 100 µM (inactive)	–	> 100 µM (inactive)	> 100 µM (inactive)	> 100	> 100 µM (inactive)	> 100 µM (inactive)	> 100 µM (inactive)	> 100 µM (inactive)	> 100 µM (inactive)
CC(=O)NC1=C(NCCO)C(=O)c2ccccc2C1=O	> 50 µM (inactive)	–	> 50 µM (inactive)	> 50 µM (inactive)	42.6 µM (inactive)	> 50 µM (inactive)	> 50 µM (inactive)	> 50 µM (inactive)	> 50 µM (inactive)	> 50	> 50 µM (inactive)	> 50 µM (inactive)	–	–	> 50 µM (inactive)
CCOC(=O)C(=O)Nc1ccccc1OCC	–	> 100 µM (inactive)	> 100 µM (inactive)	> 100 µM (inactive)	> 100 µM (inactive)	> 100 µM (inactive)	> 100 µM (inactive)	> 100 µM (inactive)	> 100 µM (inactive)	–	> 100 µM (inactive)	> 100 µM (inactive)	> 100 µM (inactive)	–	> 100 µM (inactive)
CN1N=CSC12C(=O)N(c1ccccc1)C(=O)N2c1ccccc1 (stereo unspecified)	> 100 µM (inactive)	–	> 100 µM (inactive)	> 100 µM (inactive)	> 100 µM (inactive)	–	> 100 µM (inactive)	> 100 µM (inactive)	> 100 µM (inactive)	> 100	> 100 µM (inactive)	> 100 µM (inactive)	> 100 µM (inactive)	> 100 µM (inactive)	> 100 µM (inactive)
COc1nc(C(=O)O)c(Cl)c(OC)c1Cl	> 100 µM (inactive)	> 100 µM (inactive)	> 100 µM (inactive)	> 100 µM (inactive)	> 100 µM (inactive)	–	> 100 µM (inactive)	> 100 µM (inactive)	> 100 µM (inactive)	–	> 100 µM (inactive)	> 100 µM (inactive)	> 100 µM (inactive)	> 100 µM (inactive)	> 100 µM (inactive)
O=c1/c(=C/c2ccccc2[N+](=O)[O-])sc2nnc(-c3ccco3)n12	30.4 µM (inactive)	> 100 µM (inactive)	15.8 µM (inactive)	28.1 µM (inactive)	23.1 µM (inactive)	23 µM (inactive)	23.6 µM (inactive)	31.6 µM (inactive)	47.4 µM (inactive)	28.2	19.3 µM (inactive)	34.5 µM (inactive)	–	> 100 µM (inactive)	42 µM (inactive)
CC(C)(C)c1cc2c3c(c1)c(=O)c1cccc4c(O)c5cccc(c2=O)c5c-3c41	> 100 µM (inactive)	36.6 µM (inactive)	24.7 µM (inactive)	27.7 µM (inactive)	45.1 µM (inactive)	> 100 µM (inactive)	60.1 µM (inactive)	38.1 µM (inactive)	> 100 µM (inactive)	48.5	47 µM (inactive)	> 100 µM (inactive)	–	99.1 µM (inactive)	84.7 µM (inactive)
C[C@]12CCC(=O)C=C1CC[C@@H]1C2CC[C@]2(C)Nc3c(cnn3-c3ccccc3)CC12 (stereo partly specified)	–	–	> 100 µM (inactive)	> 100 µM (inactive)	> 100 µM (inactive)	> 100 µM (inactive)	> 10 µM (inactive)	> 100 µM (inactive)	> 100 µM (inactive)	> 100	> 100 µM (inactive)	–	> 100 µM (inactive)	> 100 µM (inactive)	> 100 µM (inactive)
